system: Tomato (breed: Momotaro); assay: Relief effects of high temperature injury on tomato (Test Example 3); settings: spray, 40° C. daylight / 30° C. dark, 4 days, ascorbyl palmitate 600 ppm, thiophanate-methyl 467 ppm, boscalid 333 ppm, cyflufenamid 17 ppm + triflumizole 75 ppm
Procedure: Tomato (breed: Momotaro, 2 replications) grown up to the 4 leaf stage in a greenhouse was prepared.
A water dispersible granule of 30% ascorbyl palmitate and a commercially available agent containing the substance (B) as described in Table 8 were diluted with tap water into a concentration described in Table 8, and the diluted solution was sprayed over the whole nursery plants in a sufficient amount. After air dried, they were allowed to grow under cycle conditions of 16 hours under a daylight condition at 40° C. and 8 hours under a dark condition at 30° C. The degree of disorders was investigated at an elapsed time of 4 days after the spraying.
The degree of necrosis due to high temperature was evaluated by 11 levels of disorder indices from 0 (no necrosis) to 10 (withering to death). From this, the injury relief percentages were computed by the following formula.

| SMILES | relief percents of injury (%) |
| --- | --- |
| O=C(Nc1ccccc1-c1ccc(Cl)cc1)c1cccnc1Cl [Boscalid] | 40% |
| COC(=O)NC(=S)Nc1ccccc1NC(=S)NC(=O)OC [Thiophanate-methyl] | 40% |
| CCCCCCCCCCCCCCCC(=O)OC[C@H](O)[C@H]1OC(=O)C(O)=C1O [ascorbyl palmitate] | 40% |

system: Cucumber (breed: Sagamihanjiro); assay: Relief effects of salt injury on cucumber (Test Example 8); settings: spray, 0.1% sodium chloride irrigation from 3 days, above ground raw weight at 20 days, ascorbyl palmitate 600 ppm, imidacloprid 50 ppm, pymetrozine 100 ppm, cyenopyrafen 150 ppm, pyraclostrobin 50 ppm, normal irrigation = 100
Procedure: Cucumber (breed: Sagamihanjiro, 2 replications) hydroponically grown up to the 1.5 leaf stage in a greenhouse was prepared.
A water dispersible granule of 30% ascorbyl palmitate and a commercially available product containing the substance (B) described in Table 14 were diluted with tap water into a concentration described in Table 14, and the diluted solution was sprayed over the nursery plats in a sufficient amount. After air dried, they were cultivated in a greenhouse with normal irrigation. Irrigation was changed to 0.1% aqueous sodium chloride solution at the elapsed time of 3 days after the spraying, and cultivated. The raw weight of an above ground part was measured at the elapsed time of 20 days after the spraying. From this, injury relief percentages were computed by the following formula.

| SMILES | relief percents of injury (%) |
| --- | --- |
| O=[N+]([O-])NC1=NCCN1Cc1ccc(Cl)nc1 [Imidacloprid] | 33% |
| CC1=NNC(=O)N(/N=C/c2cccnc2)C1 [Pymetrozine] | 53% |
| COC(=O)N(OC)c1ccccc1COc1ccn(-c2ccc(Cl)cc2)n1 [Pyraclostrobin] | 77% |
| CCCCCCCCCCCCCCCC(=O)OC[C@H](O)[C@H]1OC(=O)C(O)=C1O [ascorbyl palmitate] | 53% |
| Cc1nn(C)c(/C(OC(=O)C(C)(C)C)=C(\C#N)c2ccc(C(C)(C)C)cc2)c1C [cyenopyrafen] | 51% |

From patent US9345243B2, “Chemicals composition for reducing stress on plant” (Nippon Soda Co., Ltd., priority 2012, dated 2016)
